Our source for the Kd, Ki and IC50 values is publication PMC5668910 (Biochemistry and Biophysics Reports, 2015).

Parameters in all cases: species or system guinea pig
Assay [1] concerns the target T1, gpBLT1 His83Gly^2.67/Lys88Gly^3.21 (Cavia porcellus, UniProt H0VYV8, H83G/K88G/S309A). The assay can be described thus: saturation binding of LTB4, membrane fraction.
In assay [2] the target is T2, original gpBLT1 dN15/Ser309Ala (Cavia porcellus, UniProt H0VYV8, S309A). The assay can be described thus: saturation binding of LTB4, membrane fraction.
T2 sequence (H0VYV8 16-348 S309A): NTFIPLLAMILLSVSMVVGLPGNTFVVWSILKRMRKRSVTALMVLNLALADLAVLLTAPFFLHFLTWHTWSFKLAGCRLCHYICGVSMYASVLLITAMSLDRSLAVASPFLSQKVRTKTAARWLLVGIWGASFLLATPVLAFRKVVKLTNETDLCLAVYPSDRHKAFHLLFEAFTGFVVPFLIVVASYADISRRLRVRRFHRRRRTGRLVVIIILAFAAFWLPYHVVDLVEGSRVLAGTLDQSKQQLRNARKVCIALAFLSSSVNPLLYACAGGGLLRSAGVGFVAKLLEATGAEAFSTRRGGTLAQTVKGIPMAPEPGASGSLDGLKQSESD
Assay [3] deals with T1, gpBLT1 His83Gly^2.67/Lys88Gly^3.21. Description: competitive ligand binding.
In assay [4] the target is T2, original gpBLT1 dN15/Ser309Ala. The assay can be described thus: competitive ligand binding.
Assay [5] concerns the target purified gpBLT1 His83Gly^2.67/Lys88Gly^3.21 (Cavia porcellus, UniProt H0VYV8, H83G/K88G/S309A). The assay can be described thus: competitive ligand binding to purified receptor.

For orientation: pKd means −log10 of the Kd, conventionally taken in molar units. A word on the pKi: it is −log10 of the Ki, conventionally taken in molar units. A low value points to a high Ki. A word on the pIC50: it is the negative decadic logarithm of the IC50, by convention in mol/L. Low values mean a large IC50, high ones a small IC50.

pIC50, pKd, pKi: −log10 of the molar value.

T1 sequence (H0VYV8 1-348 H83G/K88G/S309A): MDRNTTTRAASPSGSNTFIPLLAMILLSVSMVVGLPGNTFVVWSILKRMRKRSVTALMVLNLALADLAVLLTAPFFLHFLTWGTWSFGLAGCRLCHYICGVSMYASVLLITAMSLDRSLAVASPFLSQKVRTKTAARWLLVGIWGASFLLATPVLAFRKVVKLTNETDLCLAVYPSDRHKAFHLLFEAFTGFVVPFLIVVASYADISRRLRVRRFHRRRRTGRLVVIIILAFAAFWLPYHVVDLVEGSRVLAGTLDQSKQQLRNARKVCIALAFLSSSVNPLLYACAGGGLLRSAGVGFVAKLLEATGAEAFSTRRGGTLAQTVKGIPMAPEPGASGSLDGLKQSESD
purified gpBLT1 His83Gly^2.67/Lys88Gly^3.21, sequence (H0VYV8 1-348 H83G/K88G/S309A): as above

Take `CCCCC/C=C\C[C@@H](O)/C=C/C=C/C=C\[C@@H](O)CCCC(=O)O` [LTB4, leukotriene B4]: the pKd was 8.09 in assay [1] and 8.18 in assay [2]. Besides, the pKi in assay [3] is 7.89; in assay [4] it was 8.42. For the same molecule, the pIC50 in assay [5] is 8.62.
